These results are taken from US20150223456A1, “PESTICIDAL COMPOUNDS” (SYNGENTA PARTICIPATIONS AG, priority 2011, published 2015).

Compound `O=C(NCC1(c2ccc(Cl)nc2Cl)CC1)c1cccnc1Cl` [A.122, 2-Chloro-N-[1-(2,6-dichloro-pyridin-3-yl)-cyclopropylmethyl]nicotinamide] gave a melting point of 206 to 207 °C.
